Consider ten substances from PMC4957924, “Prediction and verification of novel peptide targets of protein tyrosine phosphatase 1B” (Bioorganic & Medicinal Chemistry, 2016).

Like-named read-outs stand apart in the source and are kept apart here.

The kcat/Km is the second-order rate constant that governs catalysis at low substrate concentration. As a reminder, the Km is the concentration of substrate that gives half-maximal velocity.

Data set [1] deals with T1, PTP1B (Homo sapiens, UniProt P18031).
T1 construct: PTP1B was expressed and purified as described previously; made in house
T1 sequence (P18031 1-435): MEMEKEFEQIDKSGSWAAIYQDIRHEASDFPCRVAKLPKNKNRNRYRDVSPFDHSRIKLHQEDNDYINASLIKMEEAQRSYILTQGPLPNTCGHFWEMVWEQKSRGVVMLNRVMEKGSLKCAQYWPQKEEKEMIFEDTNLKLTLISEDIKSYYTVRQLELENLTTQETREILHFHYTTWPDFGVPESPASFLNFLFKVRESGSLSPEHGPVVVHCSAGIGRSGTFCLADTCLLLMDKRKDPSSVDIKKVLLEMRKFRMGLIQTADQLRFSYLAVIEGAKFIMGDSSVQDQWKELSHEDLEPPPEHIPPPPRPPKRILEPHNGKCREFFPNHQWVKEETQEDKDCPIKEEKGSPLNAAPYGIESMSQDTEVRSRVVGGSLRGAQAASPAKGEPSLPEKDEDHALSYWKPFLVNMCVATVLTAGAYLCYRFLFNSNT
Put plainly: in vitro EnzChek phosphate assay of PTP1B against synthesized phosphopeptides. Type of data set: biochemical. Particulars: for kcat/Km / Km: peptide as substrate of PTP1B, value ± spread as printed; for recognition as substrate by PTP1B (in words): compared with Src positive control peptide. The method, then: (§1) To test if the predicted phosphopeptides would indeed be in vitro substrates of PTP1B, we synthesized six of these peptides. The two peptides from JAK1 were not synthesized and tested because the sequences are highly similar to the ones of the known substrates JAK2[20] and MET[21] that were also detected by our procedure. […] (Table 1).
PTP1B was expressed and purified as described previously.[3]
The in vitro EnzChek phosphate assay was carried out with the commercial kit from Molecular Probes as described previously.[23]

A short description of data set [2]: Solubility of synthesized peptide (observation). Type of data set: physicochemical. Particulars: qualitative; peptide therefore not tested in the enzymatic assay.
From the text: as §1

In data set [3] the target is T1, PTP1B. As to conditions: JAK2-derived phosphopeptide as PTP1B substrate; cited from earlier work. An excerpt:
To test if the predicted phosphopeptides would indeed be in vitro substrates of PTP1B, we synthesized six of these peptides. The two peptides from JAK1 were not synthesized and tested because the sequences are highly similar to the ones of the known substrates JAK2[20] and MET[21] that were also detected by our procedure. […] With the ex ...

Turning to “DNEDVpYTFKTP [Peptide 3, Predicted PTP1B phosphopeptide substrate from GAB2, pY site 293]”, in data set [1], the kcat/Km is on record as 9.2 ± 1.6 ×10^−5 M^−1 s^−1. The Km in data set [1] (read-out: Km) amounted to 17.1 ± 4.1 µM.
Regarding “DPSDNpYAEPID [Peptide 1, Predicted PTP1B phosphopeptide substrate from ARHGAP5, pY site 1090]”, the kcat/Km in data set [1] was 11.6 ± 3.4 ×10^−5 M^−1 s^−1. Also, in data set [1] (read-out: Km), the Km was 28.5 ± 5 µM.
The like results for “EEEDIpYEVLPD [Peptide 2, Predicted PTP1B phosphopeptide substrate from SKAP1, pY site 271]” were, in that order, 27.9 ± 13.9 ×10^−5 M^−1 s^−1 and 14.7 ± 3.2 µM.
For “IEDNEYTARQG [Fyn peptide, synthesized predicted phosphopeptide from Fyn]”, in data set [2], the solubility result is listed as “poor solubility”.
As to “IEDPpYpYGNDSD [Peptide 4, Predicted PTP1B phosphopeptide substrate from ACP1, pY site 133]”, the kcat/Km in data set [1] is 8.9 ± 1.1 ×10^−5 M^−1 s^−1. Also, the Km in data set [1] (read-out: Km) came to 20.1 ± 4.6 µM.
For KEpYpYKVK, in data set [3], the Km is 12.7 µM and the kcat/Km was 0.000232 M⁻¹ s⁻¹.
“KKKKpYPKK [Peptide 7, reference compound]”: in data set [1], the “recognition as substrate by PTP1B (in words)” value was “not recognized”, the Km result is “Inactive” and the kcat/Km result is “Inactive”.
As for LGSRApYPHFCA [Peptide 8], the “recognition as substrate by PTP1B (in words)” value in data set [1] is “recognized it poorly”. In data set [1] (read-out: Km), the Km was greater than 300 µM.
For the substance “QENPIpYKSPIN [Peptide 5, Predicted PTP1B phosphopeptide substrate from ITGB1, pY site 783]”, in data set [1], the kcat/Km is 7.1 ± 3.0 ×10^−5 M^−1 s^−1. In data set [1] (read-out: Km), the Km turned out to be 21.7 ± 8.9 µM.
With “STEPQpYQPGEN [Peptide 6, positive control peptide from Src as known substrate of PTP1B, reference compound]”, the kcat/Km in data set [1] is on record as 9.0 ± 3.7 ×10^−5 M^−1 s^−1. Further, the Km in data set [1] (read-out: Km) came to 29.1 ± 5.3 µM.
